The source of these data is patent US12331044B2, “Inhibitors of histone deacetylase useful for the treatment or prevention of HIV infection” (Merck Sharp & Dohme LLC, priority 2018, dated 2025).

Where two headings read alike, the source gives them in different places. A value given as a limit tells only on which side of the number the result lay.

One experiment deals with human HDAC1 (Homo sapiens (Human), UniProt Q13547).
The next experiment concerns the target HDAC6 (Homo sapiens (Human), UniProt Q9UBN7).
In the next experiment the target is human HDAC2 (Homo sapiens (Human), UniProt Q92769). As to the kind of experiment: HDAC2 inhibition assay (modified FLUOR DE LYS, 384-well). Format: biochemical. The following applies: […] enzyme, 40 μM substrate BML-KI104, 3 h pre-incubation; read-out: HDAC2 IC50.
human HDAC2, sequence (Q92769 whole entry): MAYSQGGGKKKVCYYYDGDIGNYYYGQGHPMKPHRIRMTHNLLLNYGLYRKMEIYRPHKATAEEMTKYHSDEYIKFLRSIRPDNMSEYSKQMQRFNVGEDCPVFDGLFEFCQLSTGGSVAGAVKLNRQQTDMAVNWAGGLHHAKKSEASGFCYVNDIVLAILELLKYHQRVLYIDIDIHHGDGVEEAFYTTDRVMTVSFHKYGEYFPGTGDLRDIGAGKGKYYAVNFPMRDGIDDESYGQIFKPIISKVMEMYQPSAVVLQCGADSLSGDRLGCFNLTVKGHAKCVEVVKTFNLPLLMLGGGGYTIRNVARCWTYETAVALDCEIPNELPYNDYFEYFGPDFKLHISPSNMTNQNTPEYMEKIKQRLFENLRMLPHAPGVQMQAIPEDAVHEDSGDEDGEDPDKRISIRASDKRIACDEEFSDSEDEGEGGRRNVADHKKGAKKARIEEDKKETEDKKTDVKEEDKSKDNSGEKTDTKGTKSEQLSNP
The next experiment deals with human HDAC8 (Homo sapiens (Human), UniProt Q9BY41). Briefly: HDAC8 inhibition assay (modified FLUOR DE LYS, 384-well). The following applies: […] enzyme, 200 μM substrate BML-KI178, 3 h pre-incubation; read-out: HDAC8 IC50. The class given is biochemical.
human HDAC8, sequence (Q9BY41 whole entry): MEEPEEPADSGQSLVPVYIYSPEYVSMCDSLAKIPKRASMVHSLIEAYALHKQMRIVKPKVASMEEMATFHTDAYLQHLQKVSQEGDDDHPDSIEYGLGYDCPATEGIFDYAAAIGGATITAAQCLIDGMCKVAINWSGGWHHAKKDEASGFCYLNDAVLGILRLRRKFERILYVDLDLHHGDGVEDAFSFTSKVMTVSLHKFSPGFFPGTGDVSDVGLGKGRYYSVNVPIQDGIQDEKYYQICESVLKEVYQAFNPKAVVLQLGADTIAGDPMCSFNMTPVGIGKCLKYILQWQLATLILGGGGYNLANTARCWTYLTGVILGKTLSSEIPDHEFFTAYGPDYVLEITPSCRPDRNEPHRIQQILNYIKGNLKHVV
Experiment [1] has as its target human HDAC3/SMRT heterodimer (Homo sapiens (Human), UniProt O15379).
The subject of the next experiment is KARN cells (Jurkat 2C4). As to the kind of experiment: cells. The note with it: Homo sapiens.
[2] abbreviates: read-out: Karn EC50 nM 0.1% NHS, 0.1% normal human serum, luciferase induction, 2 μM SAHA = 100%.
Where [3] appears, read: read-out: Karn EC50 nM 5% NHS, 5% normal human serum, luciferase induction, 2 μM SAHA = 100%.

HDAC6, sequence (Q9UBN7 whole entry): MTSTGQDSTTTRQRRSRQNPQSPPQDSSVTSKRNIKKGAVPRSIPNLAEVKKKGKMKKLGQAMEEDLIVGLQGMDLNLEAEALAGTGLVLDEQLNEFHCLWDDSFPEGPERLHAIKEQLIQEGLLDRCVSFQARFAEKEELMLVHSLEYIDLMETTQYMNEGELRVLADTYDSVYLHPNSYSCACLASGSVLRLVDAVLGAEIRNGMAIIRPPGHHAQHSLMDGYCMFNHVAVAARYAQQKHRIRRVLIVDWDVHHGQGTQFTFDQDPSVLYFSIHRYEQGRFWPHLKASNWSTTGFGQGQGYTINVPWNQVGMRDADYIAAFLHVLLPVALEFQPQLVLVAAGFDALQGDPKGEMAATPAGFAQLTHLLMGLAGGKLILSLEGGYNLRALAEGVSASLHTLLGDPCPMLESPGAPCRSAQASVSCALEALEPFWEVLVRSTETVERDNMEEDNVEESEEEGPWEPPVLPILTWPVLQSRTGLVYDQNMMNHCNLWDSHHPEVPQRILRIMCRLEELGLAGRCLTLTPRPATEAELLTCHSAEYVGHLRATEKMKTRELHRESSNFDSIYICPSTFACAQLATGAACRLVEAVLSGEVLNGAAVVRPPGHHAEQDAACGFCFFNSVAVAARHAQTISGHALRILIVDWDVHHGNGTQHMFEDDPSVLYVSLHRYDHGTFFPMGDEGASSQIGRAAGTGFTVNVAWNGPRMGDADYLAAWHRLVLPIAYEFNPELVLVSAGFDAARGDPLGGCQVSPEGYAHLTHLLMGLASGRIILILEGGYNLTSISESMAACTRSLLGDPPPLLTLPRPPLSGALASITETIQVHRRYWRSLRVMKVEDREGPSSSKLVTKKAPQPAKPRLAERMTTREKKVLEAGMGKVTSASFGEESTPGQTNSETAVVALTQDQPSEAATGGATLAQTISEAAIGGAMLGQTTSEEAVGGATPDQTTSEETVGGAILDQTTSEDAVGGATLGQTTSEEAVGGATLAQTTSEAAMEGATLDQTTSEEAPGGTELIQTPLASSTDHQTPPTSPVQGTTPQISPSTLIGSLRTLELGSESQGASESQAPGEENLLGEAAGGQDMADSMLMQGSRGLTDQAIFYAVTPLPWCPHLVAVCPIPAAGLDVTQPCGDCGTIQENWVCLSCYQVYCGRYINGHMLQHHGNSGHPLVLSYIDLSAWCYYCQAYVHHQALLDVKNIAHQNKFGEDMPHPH
human HDAC1, sequence (Q13547 whole entry): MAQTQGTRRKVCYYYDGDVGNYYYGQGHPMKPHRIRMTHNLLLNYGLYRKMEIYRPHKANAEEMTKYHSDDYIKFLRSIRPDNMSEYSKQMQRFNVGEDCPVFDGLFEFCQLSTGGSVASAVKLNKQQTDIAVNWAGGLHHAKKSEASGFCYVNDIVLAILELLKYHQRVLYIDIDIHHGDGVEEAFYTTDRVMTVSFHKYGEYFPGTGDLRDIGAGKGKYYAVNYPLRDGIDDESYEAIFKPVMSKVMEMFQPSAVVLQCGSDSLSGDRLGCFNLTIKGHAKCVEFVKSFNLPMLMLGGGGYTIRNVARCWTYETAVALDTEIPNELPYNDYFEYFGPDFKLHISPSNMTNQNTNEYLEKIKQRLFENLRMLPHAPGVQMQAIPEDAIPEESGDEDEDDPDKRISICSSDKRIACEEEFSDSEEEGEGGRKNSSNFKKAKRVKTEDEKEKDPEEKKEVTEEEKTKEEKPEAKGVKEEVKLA
human HDAC3/SMRT heterodimer, sequence (O15379 whole entry): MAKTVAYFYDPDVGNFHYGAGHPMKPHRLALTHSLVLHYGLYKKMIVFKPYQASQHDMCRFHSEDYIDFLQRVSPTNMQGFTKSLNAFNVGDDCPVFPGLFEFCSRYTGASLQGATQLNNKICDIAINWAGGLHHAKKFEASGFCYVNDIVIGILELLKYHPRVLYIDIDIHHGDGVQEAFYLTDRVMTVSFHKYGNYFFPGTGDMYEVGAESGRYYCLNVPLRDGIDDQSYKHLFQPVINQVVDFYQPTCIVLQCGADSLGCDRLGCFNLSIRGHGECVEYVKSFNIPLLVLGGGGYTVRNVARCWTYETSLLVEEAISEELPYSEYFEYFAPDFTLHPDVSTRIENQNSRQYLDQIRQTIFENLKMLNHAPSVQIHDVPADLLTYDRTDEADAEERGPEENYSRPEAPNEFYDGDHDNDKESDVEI
human HDAC3/SMRT heterodimer, sequence (Q9Y618 1-899 partner): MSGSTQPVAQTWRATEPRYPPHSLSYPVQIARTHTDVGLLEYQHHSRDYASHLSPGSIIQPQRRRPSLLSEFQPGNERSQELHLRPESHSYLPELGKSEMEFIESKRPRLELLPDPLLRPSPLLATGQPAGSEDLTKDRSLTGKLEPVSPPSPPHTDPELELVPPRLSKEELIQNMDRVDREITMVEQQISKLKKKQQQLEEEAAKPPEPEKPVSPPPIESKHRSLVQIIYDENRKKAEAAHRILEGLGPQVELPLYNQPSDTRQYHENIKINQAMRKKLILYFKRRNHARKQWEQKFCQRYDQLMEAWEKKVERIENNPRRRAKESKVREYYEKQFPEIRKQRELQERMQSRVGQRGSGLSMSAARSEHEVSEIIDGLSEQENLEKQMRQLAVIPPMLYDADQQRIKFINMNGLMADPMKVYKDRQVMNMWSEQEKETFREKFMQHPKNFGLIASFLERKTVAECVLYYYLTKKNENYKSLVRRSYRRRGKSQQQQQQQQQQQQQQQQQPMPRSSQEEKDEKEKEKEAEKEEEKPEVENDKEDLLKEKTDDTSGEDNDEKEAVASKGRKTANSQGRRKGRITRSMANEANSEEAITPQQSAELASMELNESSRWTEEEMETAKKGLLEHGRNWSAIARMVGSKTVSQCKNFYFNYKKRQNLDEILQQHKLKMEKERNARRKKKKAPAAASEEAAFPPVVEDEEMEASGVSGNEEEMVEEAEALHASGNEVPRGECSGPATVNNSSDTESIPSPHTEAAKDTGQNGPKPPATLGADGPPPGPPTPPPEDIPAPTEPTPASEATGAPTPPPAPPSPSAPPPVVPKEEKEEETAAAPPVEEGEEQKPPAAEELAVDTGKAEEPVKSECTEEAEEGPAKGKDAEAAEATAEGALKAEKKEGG
Procedure for KARN cells (Jurkat 2C4): KARN Assay Cell Maintenance
KARN cells (Jurkat 2C4) were licensed from the laboratory of Dr. John Karn, Case Western Reserve University, School of Medicine. […] An atmosphere of 5% CO2 and 90% humidity was used for all culture work.
These flasks were returned to the incubator.
The cells were gently resuspended in assay media (30 ml) and pelleted again. […] The cells were counted using the ViCell (Beckman Coulter) and diluted as necessary. […] The plates were covered and returned to the incubator prior to compound addition.
The reference compounds, DMSO and SAHA were then added to the compound plate. […] The final high concentration for SAHA and the test compounds in the assays was 40 μM. The final DMSO concentration in all wells was 0.4%. The minimal induction reference compound used was DMSO and the maximal induction reference compound used was SAHA (2 μM final concentration in the assay).
Day 3: The luciferase detection reagent was prepared by transferring the contents of one bottle of Steady-Glo buffer to one bottle of Steady-Glo aubstrate (Steady-Glo Luciferase Assay System, Promega, catalog number E2520), followed by gently mixing until the substrate was thoroughly dissolved and the solution was equilibrated to room temperature. […] The Steady-Glo Reagent was added to the plates (30 μl/well), which were then covered with a black lid and incubated for 10 minutes at room temperature. The plates were then read for luminescence on an Envision (Perkin Elmer) using the ultrasensitive mode (US LUM), 0.1 counts per second and 384-well aperture. Luminescence counts in the DMSO reference wells were considered as 0% induction, while those in the 2 μM SAHA reference wells were considered as 100% induction. Dose response curves were plotted as test compound concentration (X-axis) vs. percent activation (Y-axis) using a 4-parameter fit based on the Levenberg-Marquardt algorithm.

With `CN1CC(C(=O)N[C@@H](CCCCCC(=O)c2ncco2)c2nc(-c3ccc(F)cc3)c[nH]2)C1` [Example 1, (S)-N-(1-(4-(4-fluorophenyl)-1H-imidazol-2-yl)-7-(oxazol-2-yl)-7-oxoheptyl)-1-methylazetidine-3-carboxamide], the figures for the IC50 on human HDAC1 and against HDAC6 were 1.1 nM and 45000 nM, respectively.
For `COc1nc2ccccc2cc1-c1cnc([C@H](CCCCCC(=O)c2ncco2)NC(=O)CN2CCCC2)[nH]1` [Example 52], the IC50 (commonly the concentration needed to halve the response being measured) on human HDAC2 turned out to be 2.5 nM; at human HDAC8, 44 nM; against human HDAC1 it was 0.56 nM; in experiment [1], 1.1 nM. The EC50 (in general, the midpoint of the concentration-response curve) with KARN cells (Jurkat 2C4) (setting [2]) came to 23 nM; in the experiment on KARN cells (Jurkat 2C4) (setting [3]), 81 nM.
Consider `COc1nc2ccccc2cc1-c1cnc([C@H](CCCCCC(=O)c2ncco2)NC(=O)CN2CCOCC2)[nH]1` [Example 54], for which the concentration for half-maximal inhibition (IC50) was 6.3 nM on human HDAC2, 88 nM on human HDAC8, 2 nM against human HDAC1 and 1.5 nM in experiment [1]. Further, the EC50 in the experiment with KARN cells (Jurkat 2C4) (setting [2]) was 76 nM; with KARN cells (Jurkat 2C4) (setting [3]) it was 680 nM.
For the compound `CN1CCC1C(=O)N[C@@H](CCCCCC(=O)c1ccon1)c1ncc(-c2ccccc2F)[nH]1` (stereo partly shown) [Example 60], the 50% inhibitory concentration (IC50) is 0.41 nM at human HDAC2, 1.7 nM at human HDAC8, 0.13 nM on human HDAC1 and > 900 nM against HDAC6. Also, the EC50 in the experiment with KARN cells (Jurkat 2C4) (setting [2]) was 4.2 nM; with KARN cells (Jurkat 2C4) (setting [3]), 9 nM.
On to `CCN[C@@H](CCCCCC(=O)c1ncco1)c1ncc(-c2cc3ccc(=O)n(C)c3cc2OC)[nH]1` [Example 77, (S)-6-(2-(1-(ethylamino)-7-(oxazol-2-yl)-7-oxoheptyl)-1H-imidazol-5-yl)-7-methoxy-1-methylquinolin-2(1H)-one], for which the half-maximal inhibitory concentration (IC50) on human HDAC8 and against HDAC6 was > 900 nM in each case. The 50% effective concentration (EC50) in the experiment on KARN cells (Jurkat 2C4) (setting [2]) and with KARN cells (Jurkat 2C4) (setting [3]) was 120 nM each time.
For `COc1cc2nc(C)ccc2cc1-c1cnc([C@H](CCCCCC(=O)c2ncco2)NC2CCOCC2)[nH]1` [Example 80, (S)-7-(5-(7-methoxy-2-methylquinolin-6-yl)-1H-imidazol-2-yl)-1-(oxazol-2-yl)-7-((tetrahydro-2H-pyran-4-yl)amino)heptan-1-one], the IC50 was 10 nM on human HDAC2, 3500 nM on human HDAC8, 5.7 nM in experiment [1] and 15000 nM against HDAC6. Also, the EC50 in the experiment on KARN cells (Jurkat 2C4) (setting [2]) is 550 nM; with KARN cells (Jurkat 2C4) (setting [3]), 680 nM.
Take `N[C@@H](CCCCCC(=O)c1ccon1)c1cc(-c2ccc(F)cc2)on1` [Example 118, (S)-7-amino-7-(5-(4-fluorophenyl)isoxazol-3-yl)-1-(isoxazol-3-yl)heptan-1-one]: the IC50 at human HDAC2 stood at 8 nM; on human HDAC8, 300 nM; at human HDAC1, 2.4 nM; against HDAC6, 45000 nM. Further, the EC50 worked out at 780 nM with KARN cells (Jurkat 2C4) (setting [2]) and 1600 nM with KARN cells (Jurkat 2C4) (setting [3]).
Regarding `N[C@H](CCCCCC(=O)c1ccon1)c1cc(-c2ccc(F)cc2)on1` [Example 119, (R)-7-amino-7-(5-(4-fluorophenyl)isoxazol-3-yl)-1-(isoxazol-3-yl)heptan-1-one], the IC50 at human HDAC2 was found to be 420 nM; at human HDAC8, 260 nM; against human HDAC1, 96 nM; against HDAC6 it was 45000 nM. In addition, in the experiment with KARN cells (Jurkat 2C4) (setting [2]), the 50% effective concentration (EC50) is 10000 nM.
On to `NC(CCCCCC(=O)c1ccon1)c1cnn(-c2ccc(F)cc2)c1` (stereo not shown) [Example 122, 7-amino-7-[1-(4-fluorophenyl)-1H-pyrazol-4-yl]-1-isoxazol-3-ylheptan-1-one], for which the IC50 was determined as 500 nM at human HDAC1 and 570 nM in experiment [1].
Take `Cn1cc2cc(-n3ccc([C@H](N)CCCCCC(=O)c4ncco4)n3)ccc2n1` [Example 127, (7R)-7-amino-7-[1-(2-methyl-2H-indazol-5-yl)-1H-pyrazol-3-yl]-1-(1,3-oxazol-2-yl)heptan-1-one]: the IC50 worked out at 2600 nM on human HDAC2, 480 nM at human HDAC1 and 770 nM in experiment [1].
Turning to `N[C@@H](CCCCCC(=O)c1ncco1)c1ncc(-c2cnc(C3CC3)cn2)[nH]1` [Example 131, (7S)-7-amino-7-[5-(5-cyclopropylpyrazin-2-yl)-1H-imidazol-2-yl]-1-(1,3-oxazol-2-yl)heptan-1-one], the IC50 on human HDAC2 is 23 nM; at human HDAC8 it was > 900 nM; in experiment [1] it was 9 nM; against HDAC6 it was > 900 nM. For the same compound, the half-maximal effective concentration (EC50) in the experiment with KARN cells (Jurkat 2C4) (setting [2]) was determined as 1300 nM; in the experiment with KARN cells (Jurkat 2C4) (setting [3]) it was 1500 nM.
As to `N[C@@H](CCCCCC(=O)c1ncco1)c1ncc(-c2cc(F)ccc2F)[nH]1` [Example 135, (7S)-7-amino-7-[5-(2,5-difluorophenyl)-1H-imidazol-2-yl]-1-(1,3-oxazol-2-yl)heptan-1-one], the IC50 at human HDAC8 and on HDAC6 was > 900 nM in each case. Besides, the EC50 is 5600 nM with KARN cells (Jurkat 2C4) (setting [2]) and 13000 nM in the experiment with KARN cells (Jurkat 2C4) (setting [3]).
Consider `N[C@@H](CCCCCC(=O)c1ncco1)c1ncc(-c2ccc(OC(F)(F)F)cc2F)[nH]1` [Example 141, (7S)-7-amino-7-{5-[2-fluoro-4-(trifluoromethoxy)phenyl]-1H-imidazol-2-yl}-1-(1,3-oxazol-2-yl)heptan-1-one], for which the IC50 at human HDAC8 and against HDAC6 was > 900 nM in each case. In addition, the concentration for a half-maximal effect (EC50) with KARN cells (Jurkat 2C4) (setting [2]) was 2400 nM; in the experiment on KARN cells (Jurkat 2C4) (setting [3]) it was 3500 nM.
As for `COc1nc2ccccc2cc1-c1cnc([C@H](CCCCCC(=O)c2ncco2)NC(=O)c2ccc(OC(F)F)nc2)[nH]1` [Example 146, 6-(difluoromethoxy)-N-[(1S)-1-[5-(2-methoxyquinolin-3-yl)-1H-imidazol-2-yl]-7-(1,3-oxazol-2-yl)-7-oxoheptyl]pyridine-3-carboxamide], the IC50 at human HDAC2 was found to be 16 nM; at human HDAC8 it was 96 nM; against human HDAC1, 5.3 nM; in experiment [1], 2.3 nM. The values for the EC50 in the experiment on KARN cells (Jurkat 2C4) (setting [2]) and in the experiment on KARN cells (Jurkat 2C4) (setting [3]) were 130 nM and 440 nM, respectively.
As to `COc1nc2ccccc2cc1-c1cnc([C@H](CCCCCC(=O)c2ncco2)NC(=O)C2(c3ccncc3)CC2)[nH]1` [Example 151, N-[(1S)-1-[5-(2-methoxyquinolin-3-yl)-1H-imidazol-2-yl]-7-(1,3-oxazol-2-yl)-7-oxoheptyl]-1-pyridin-4-ylcyclopropanecarboxamide], the IC50 on human HDAC2 was determined as 7.8 nM; at human HDAC8 it was 57 nM; against human HDAC1, 2 nM; in experiment [1], 1.5 nM. Also, the figures for the EC50 in the experiment with KARN cells (Jurkat 2C4) (setting [2]) and with KARN cells (Jurkat 2C4) (setting [3]) were 68 nM and 790 nM, respectively.
On to `COc1nc2ccccc2cc1-c1cnc([C@H](CCCCCC(=O)c2ncco2)NC(=O)c2nc3ccccc3o2)[nH]1` [Example 153, N-[(1S)-1-[5-(2-methoxyquinolin-3-yl)-1H-imidazol-2-yl]-7-(1,3-oxazol-2-yl)-7-oxoheptyl]-1,3-benzoxazole-2-carboxamide], for which the IC50 at human HDAC2 is 15 nM; at human HDAC8, 167 nM; on human HDAC1, 8.5 nM; in experiment [1], 4.2 nM. Further, the concentration for a half-maximal effect (EC50) was determined as 100 nM in the experiment on KARN cells (Jurkat 2C4) (setting [2]) and 560 nM in the experiment on KARN cells (Jurkat 2C4) (setting [3]).
Take `COc1nc2ccccc2cc1-c1cnc([C@H](CCCCCC(=O)c2ncco2)NC(=O)c2cc3n(n2)CCCC3)[nH]1` [Example 154]: the IC50 at human HDAC2 is 20 nM; on human HDAC8 it was 110 nM; at human HDAC1, 5.1 nM; in experiment [1], 2 nM. Besides, the values for the 50% effective concentration (EC50) in the experiment on KARN cells (Jurkat 2C4) (setting [2]) and in the experiment on KARN cells (Jurkat 2C4) (setting [3]) were 120 nM and 570 nM, respectively.
As to `COc1nc2ccccc2cc1-c1cnc([C@H](CCCCCC(=O)c2ncco2)NC(=O)[C@H]2CCC(=O)N2)[nH]1` [Example 156, N-[(1S)-1-[5-(2-methoxyquinolin-3-yl)-1H-imidazol-2-yl]-7-(1,3-oxazol-2-yl)-7-oxoheptyl]-5-oxo-D-prolinamide], the IC50 at human HDAC2 was determined as 5.4 nM; against human HDAC1, 1.1 nM; in experiment [1], 1.1 nM. Also, the EC50 with KARN cells (Jurkat 2C4) (setting [2]) was 88 nM; with KARN cells (Jurkat 2C4) (setting [3]) it was 420 nM.
With `COc1nc2ccccc2cc1-c1cnc([C@H](CCCCCC(=O)c2ncco2)NC(=O)[C@@H]2CCC(=O)N2)[nH]1` [Example 157, N-[(1S)-1-[5-(2-methoxyquinolin-3-yl)-1H-imidazol-2-yl]-7-(1,3-oxazol-2-yl)-7-oxoheptyl]-5-oxo-L-prolinamide], the results for the half-maximal inhibitory concentration (IC50) (at human HDAC2; against human HDAC1; in experiment [1]) were 4.1 nM, 0.64 nM and 1 nM, respectively. Besides, the EC50 was found to be 77 nM with KARN cells (Jurkat 2C4) (setting [2]) and 380 nM with KARN cells (Jurkat 2C4) (setting [3]).
Consider `COc1cc2nc(C)ccc2cc1-c1cnc([C@H](CCCCCC(=O)c2ncco2)NC(=O)Cn2cccn2)[nH]1` [Example 160, N-[(1S)-1-[5-(7-methoxy-2-methylquinolin-6-yl)-1H-imidazol-2-yl]-7-(1,3-oxazol-2-yl)-7-oxoheptyl]-2-(1H-pyrazol-1-yl)acetamide], for which the IC50 on human HDAC2 is 5.5 nM; at human HDAC8, 71 nM; in experiment [1], 0.54 nM; against HDAC6, > 900 nM. Moreover, the half-maximal effective concentration (EC50) was 48 nM with KARN cells (Jurkat 2C4) (setting [2]) and 120 nM with KARN cells (Jurkat 2C4) (setting [3]).
With `CN1CC(C(=O)N[C@@](C)(CCCCCC(=O)c2ccon2)c2ncc(-c3ccccc3F)[nH]2)C1` [Example 184, (S)-N-(2-(5-(2-fluorophenyl)-1H-imidazol-2-yl)-8-(isoxazol-3-yl)-8-oxooctan-2-yl)-1-methylazetidine-3-carboxamide], the IC50 on HDAC6 was > 900 nM. Further, the values for the EC50 in the experiment on KARN cells (Jurkat 2C4) (setting [2]) and in the experiment on KARN cells (Jurkat 2C4) (setting [3]) were 56 nM and 57 nM, respectively.
In the same order, the values of `CN1CC(C(=O)N[C@@H](CCCCCC(=O)c2ccon2)c2nc(Cl)c(-c3ccc(F)cc3)[nH]2)C1` [Example 196, (S)-N-(1-(4-chloro-5-(4-fluorophenyl)-1H-imidazol-2-yl)-7-(isoxazol-3-yl)-7-oxoheptyl)-1-methylazetidine-3-carboxamide 2,3-dihydroxysuccinate] are 4600 nM, 3.8 nM and 7.5 nM.
